Results taken from ChEMBL document CHEMBL1127199, “Design of C-terminal peptide antagonists of endothelin: structure-activity relationships of ET-[1621, D-His16]” (Bioorg Med Chem Lett, 1993).
pIC50: −log10 of the molar value. Where a SMILES comes first, the peptide text is derived from it. [ ]: non-standard residue; d: D form.

Experiments:
[1] = molecular target: Endothelin A receptor (Oryctolagus cuniculus); experiment: Displacement of [125I]-ET-1 from Endothelin A receptor of rabbit renal artery vascular smooth muscle cells
[2] = molecular target: T1, Endothelin receptor type B (Rattus norvegicus, UniProt P21451); experiment: Displacement of [125I]ET1 from Endothelin B receptor of rat cerebellum; type: tissue-based
T1 sequence (P21451 whole entry): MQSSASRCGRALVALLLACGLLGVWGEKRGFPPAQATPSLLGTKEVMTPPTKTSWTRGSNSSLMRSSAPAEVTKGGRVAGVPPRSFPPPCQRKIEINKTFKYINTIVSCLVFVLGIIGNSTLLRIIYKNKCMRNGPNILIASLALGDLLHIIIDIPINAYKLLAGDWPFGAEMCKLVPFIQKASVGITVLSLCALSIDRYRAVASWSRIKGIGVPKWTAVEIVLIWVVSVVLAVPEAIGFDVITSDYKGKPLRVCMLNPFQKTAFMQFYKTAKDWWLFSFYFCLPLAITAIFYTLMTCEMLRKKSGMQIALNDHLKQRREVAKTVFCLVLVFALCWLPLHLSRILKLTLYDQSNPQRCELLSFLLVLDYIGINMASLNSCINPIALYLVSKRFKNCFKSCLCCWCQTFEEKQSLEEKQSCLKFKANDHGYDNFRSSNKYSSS

[3] = species on record: Oryctolagus cuniculus; experiment: Compound was tested for its inhibition of ET-1 induced arachidonic acid accumulation in rabbit renal artery vascular smooth muscle cells; type: functional

Compound | pIC50 [1] | pIC50 [2] | pIC50 [3]
CC[C@H](C)[C@H](NC(=O)[C@H](CC(=O)O)NC(=O)[C@@H](Cc1ccccc1)NC(C)=O)C(=O)N[C@H](C(=O)N[C@@H](Cc1c[nH]c2ccccc12)C(=O)O)[C@@H](C)CC (Ac-[dF]DIIW-OH) | 5.04 |  | 
CC[C@H](C)[C@H](NC(=O)[C@H](CC(=O)O)NC(=O)[C@H](CC(C)C)NC(=O)[C@H](Cc1c[nH]cn1)NC(C)=O)C(=O)N[C@H](C(=O)N[C@@H](Cc1c[nH]c2ccccc12)C(=O)O)[C@@H](C)CC (Ac-HLDIIW-OH) |  | < 4.30 | 
CC[C@H](C)[C@H](NC(=O)[C@H](CC(=O)O)NC(=O)[C@H](CC(C)C)NC(=O)[C@@H](Cc1ccccc1)NC(C)=O)C(=O)N[C@H](C(=O)N[C@@H](Cc1c[nH]c2ccccc12)C(=O)O)[C@@H](C)CC (Ac-[dF]LDIIW-OH) |  | 6.85 | 
CC[C@H](C)[C@H](NC(=O)[C@H](CC(=O)O)NC(=O)[C@@H](Cc1ccccc1)NC(=O)[C@@H](Cc1ccccc1)NC(C)=O)C(=O)N[C@H](C(=O)N[C@@H](Cc1c[nH]c2ccccc12)C(=O)O)[C@@H](C)CC (Ac-[dF][dF]DIIW-OH) |  | 7.52 | 5.80
CC[C@H](C)[C@H](NC(=O)[C@H](CC(=O)O)NC(=O)[C@H](CCC(=O)O)NC(=O)[C@@H](Cc1ccccc1)NC(C)=O)C(=O)N[C@H](C(=O)N[C@@H](Cc1c[nH]c2ccccc12)C(=O)O)[C@@H](C)CC (Ac-[dF]EDIIW-OH) |  |  | 6.22
CC[C@H](C)[C@H](NC(=O)[C@H](CC(=O)O)NC(=O)[C@H](Cc1ccccc1)NC(=O)[C@@H](Cc1ccccc1)NC(C)=O)C(=O)N[C@H](C(=O)N[C@@H](Cc1c[nH]c2ccccc12)C(=O)O)[C@@H](C)CC (Ac-[dF]FDIIW-OH) |  | 7.30 | 
